Source: US20240391862A1, “(1,4,5-TRISUBSTITUTED-1H-PYRAZOL-3-YL)OXY-2-ALKOXY ALKYL ACIDS AND THEIR DERIVATIVES, THEIR SALTS AND THEIR USE AS HERBICIDAL AGENTS” (Bayer AKtiengesellschaft, priority 2021, published 2024)

What was measured:
[1] = tested on: VERPE; assay: Post-emergence herbicidal effect, greenhouse pot test; format: in vivo, Veronica persica; conditions: for pest or weed control at 80 g/ha / pest or weed control at 320 g/ha: Veronica persica, 504 h, read-out: Post-emergence effect against VERPE in %
Summary of the method: (§1)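 Greenhouse pot plants in sandy loam receive a one-leaf-stage spray at 20 to 320 g/ha. Activity is assessed visually around 3 weeks afterwards on a 0–100% scale, where 100% means the plants have died.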

[2] = tested on: VIOTR; assay: as above; format: in vivo, Viola tricolor
Summary of the method: as §1

[3] = tested on: AMARE; assay: as above; format: in vivo, Amaranthus retroflexus; conditions: visual rating about 3 weeks after treatment
Summary of the method: as §1

[4] = tested on: AVEFA; assay: as above; format: in vivo, Avena fatua; conditions: 320 g/ha, visual rating about 3 weeks after treatment
Summary of the method: as §1

[5] = tested on: POLCO; assay: as above; format: in vivo, Fallopia convolvulus
Summary of the method: as §1

[6] = tested on: ABUTH; assay: as above; format: in vivo, Abutilon theophrasti; conditions: visual rating about 3 weeks after treatment
Summary of the method: as §1

[7] = tested on: ECHCG; assay: as above; format: in vivo, Echinochloa crus-galli
Summary of the method: as §1

[8] = tested on: ALOMY; assay: as above; format: in vivo, Alopecurus myosuroides; conditions: 320 g/ha, visual rating about 3 weeks after treatment
Summary of the method: as §1

[9] = tested on: PHBPU; assay: as above; format: in vivo, Ipomoea purpurea; conditions: for pest or weed control at 320 g/ha: Ipomoea purpurea, 504 h, read-out: Post-emergence effect against PHBPU in %
Summary of the method: as §1

[10] = tested on: DIGSA; assay: as above; format: in vivo, Digitaria sanguinalis; conditions: 320 g/ha, visual rating about 3 weeks after treatment; for pest or weed control at 320 g/ha: Digitaria sanguinalis, 504 h, read-out: Post-emergence effect against DIGSA
Summary of the method: as §1

[11] = tested on: ZEAMX; assay: Post-emergence herbicidal effect and crop plant compatibility, greenhouse pot test; format: in vivo, Zea mays; conditions: 20 g/ha, one-leaf stage, rated visually after about 3 weeks vs untreated controls
Summary of the method: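 Visual % activity scored roughly 3 weeks post-spray against untreated plants, where 100% means death and 0% equals control. Plants were treated at the one-leaf stage, 2 to 3 weeks after sowing in sandy loam, at 20 to 320 g/ha.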

[12] = tested on: MATIN; assay: Post-emergence herbicidal effect, greenhouse pot test; format: in vivo, Tripleurospermum inodorum
Summary of the method: as §1

[13] = tested on: SETVI; assay: as above; format: in vivo, Setaria viridis; conditions: for pest or weed control at 320 g/ha: Setaria viridis, 504 h, read-out: Post-emergence effect against SETVI in %
Summary of the method: as §1

[14] = tested on: TRZAS; assay: Post-emergence herbicidal effect and crop plant compatibility, greenhouse pot test; format: in vivo, Triticum aestivum; conditions: 20 g/ha, one-leaf stage, rated visually after about 3 weeks vs untreated controls
Excerpt: • ALOMY: Alopecurus myosuroides SETVI: Setaria viridis • AVEFA: Avena fatua POLCO: Fallopia convolvulus • AMARE: Amaranthus retroflexus ECHCG: Echinochloa crus-galli • LOLRJ: Lolium rigidum STEME: Stellaria media • VERPE: Veronica persica MATIN: Tripleurospermum inodorum • DIGSA: Digitaria sanguinalis ABUTH: Abutylon threophrasti • TRZAS: Triticum aestivum VIOTR: Viola tricolor • BRSNW: Brassica napus ZEAMX: Zea mays • PHBPU: Ipomoea purpurea GLXMA: Glycine max • ORYSA: Oryza sativa HORMU: Hordeum murinum
Seeds of monocotyledonous and dicotyledonous weeds and crop plants are placed in sandy loam in plastic or organic planting pots, covered with soil and cultivated in a greenhouse under controlled growth conditions. 2 to 3 weeks after sowing, the trial plants are treated at the one-leaf stage. The compounds of the invention, formulated in the form of wettable powders (WP) or as emulsion concentrates (EC), are then sprayed onto the green parts of the plants as aqueous suspension or emulsion with addition of 0.5% additive at a water application rate of 600 l/ha (converted). After the test plants have been kept in the greenhouse under optimum growth conditions for about 3 weeks, the activity of the preparations is rated visually in comparison to untreated controls. For example, 100% activity=the plants have died, 0% activity=like control plants.
Tables 20a to 38c below show the effects/crop compatibilities of selected compounds of the general formula (I) on various harmful plants at an application rate corresponding to 20 to 320 g/ha, which were obtained by the trial procedure specified above.

[15] = tested on: KCHSC; assay: Post-emergence herbicidal effect, greenhouse pot test; format: in vivo; conditions: 320 g/ha
Summary of the method: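 Visual rating of activity against untreated plants (100% = plants died, 0% = no effect), done about 3 weeks after treatment. Compounds applied at 20–320 g/ha as aqueous spray (600 l/ha, 0.5% additive) from WP or EC formulations onto one-leaf-stage plants grown in sandy loam under greenhouse conditions.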

[16] = tested on: LOLRI; assay: as above; format: in vivo, Lolium rigidum; conditions: Lolium rigidum, 504 h, 320 g/ha, read-out: Post-emergence effect against LOLRI in %
Summary of the method: as §1

[17] = Viola tricolor, 504 h, 320 g/ha, read-out: Post-emergence effect against VIOTR in %
[18] = Amaranthus retroflexus, 504 h, 320 g/ha, read-out: Post-emergence effect against AMARE
[19] = Abutilon theophrasti, 504 h, 320 g/ha, read-out: Post-emergence effect against ABUTH
[20] = Echinochloa crus-galli, 504 h, 320 g/ha, read-out: Post-emergence effect against ECHCG in %
[21] = Tripleurospermum inodorum, 504 h, 320 g/ha, read-out: Post-emergence effect against MATIN in %

CCOC(Oc1nn(-c2ccccc2F)c(-c2ccc(F)nc2)c1Cl)C(=O)OCC(C)C(=O)OC (racemic) [Example I-54]
80%: Post-emergence effect against VERPE in % ([1]; 20 g/ha) | Post-emergence effect against VERPE in % ([1]; 80 g/ha) | Post-emergence effect against VIOTR in % ([2]; 80 g/ha) | Post-emergence effect against VIOTR in % ([2]; 320 g/ha) | Post-emergence effect against AMARE ([3]; 320 g/ha) | Post-emergence effect against POLCO in % ([5]; 80 g/ha) | Post-emergence effect against POLCO in % ([5]; 320 g/ha) | Post-emergence effect against ABUTH ([6]; 320 g/ha) | Post-emergence effect against ECHCG ([7]; 20 g/ha, visual rating about 3 weeks after treatment) | Post-emergence effect against MATIN in % ([12]; 20 g/ha) | Post-emergence effect against SETVI in % ([13]; 80 g/ha) | Post-emergence effect against KCHSC in % [15]
90%: Post-emergence effect against VERPE in % ([1]; 320 g/ha) | Post-emergence effect against AVEFA [4] | Post-emergence effect against ECHCG in % ([7]; 80 g/ha) | Post-emergence effect against ECHCG in % ([7]; 320 g/ha) | Post-emergence effect against PHBPU in % ([9]; 80 g/ha) | Post-emergence effect against PHBPU in % ([9]; 320 g/ha) | Post-emergence effect against DIGSA [10] | Post-emergence effect against MATIN in % ([12]; 80 g/ha) | Post-emergence effect against MATIN in % ([12]; 320 g/ha) | Post-emergence effect against SETVI in % ([13]; 320 g/ha)
0%: Post-emergence effect at 20 g/ha against ZEAMX in % [11] | Post-emergence effect at 20 g/ha against TRZAS in % [14]
100%: Post-emergence effect against ALOMY [8]

COC(Oc1nn(-c2ccccc2F)c(-c2ccc(F)nc2)c1Br)C(=O)O (stereo not shown) [Example I-25]
80%: pest or weed control at 80 g/ha ([1]; 80 g/ha) | pest or weed control at 320 g/ha [2, 17] | pest or weed control at 80 g/ha ([3]; Amaranthus retroflexus, 504 h, 80 g/ha, read-out: Post-emergence effect against AMARE) | pest or weed control at 320 g/ha [6, 19] | pest or weed control at 320 g/ha [7, 20] | pest or weed control at 320 g/ha [12, 21]
20%: Post-emergence effect at 20 g/ha against ZEAMX in % [11]
90%: pest or weed control at 320 g/ha ([1]; 320 g/ha) | pest or weed control at 320 g/ha [3, 18] | pest or weed control at 320 g/ha [16] | pest or weed control at 320 g/ha ([9]; 320 g/ha) | pest or weed control at 320 g/ha [10] | pest or weed control at 320 g/ha ([13]; 320 g/ha)
10%: Post-emergence effect at 20 g/ha against TRZAS in % [14]

COC(Oc1nn(-c2cc(F)ccc2F)c(-c2cncc(F)c2)c1Br)C(=O)O (stereo not shown) [Example I-32]
80%: pest or weed control at 320 g/ha [3, 18] | pest or weed control at 320 g/ha ([5]; Fallopia convolvulus, 504 h, 320 g/ha, read-out: Post-emergence effect against POLCO in %) | pest or weed control at 80 g/ha ([6]; Abutilon theophrasti, 504 h, 80 g/ha, read-out: Post-emergence effect against ABUTH)
90%: pest or weed control at 80 g/ha ([1]; 80 g/ha) | pest or weed control at 320 g/ha ([1]; 320 g/ha) | pest or weed control at 80 g/ha ([2]; Viola tricolor, 504 h, 80 g/ha, read-out: Post-emergence effect against VIOTR in %) | pest or weed control at 320 g/ha [2, 17] | pest or weed control at 320 g/ha ([4]; Avena fatua, 504 h, read-out: Post-emergence effect against AVEFA) | pest or weed control at 320 g/ha [6, 19] | pest or weed control at 320 g/ha [16] | pest or weed control at 80 g/ha ([7]; Echinochloa crus-galli, 504 h, 80 g/ha, read-out: Post-emergence effect against ECHCG in %) | pest or weed control at 320 g/ha [7, 20] | pest or weed control at 320 g/ha ([9]; 320 g/ha) | pest or weed control at 320 g/ha [10] | pest or weed control at 80 g/ha ([12]; Tripleurospermum inodorum, 504 h, 80 g/ha, read-out: Post-emergence effect against MATIN in %) | pest or weed control at 320 g/ha [12, 21] | pest or weed control at 320 g/ha ([13]; 320 g/ha)
10%: plant injury at 20 g/ha ([11]; Zea mays, 504 h, read-out: Post-emergence effect at 20 g/ha against ZEAMX in %) | percent crop injury (phytotoxicity) to wheat, post-emergence at 20 g/ha ([14]; Triticum aestivum, 504 h, read-out: Post-emergence effect at 20 g/ha against TRZAS in %)
